From ChEMBL document CHEMBL1201862, “PubChem BioAssay data set” (2004) come the findings set out here.

Test systems include 786-0; A549; CAKI-1; HCT-116; HOP-92; IGROV-1; KM12; LOX IMVI; MCF7; MDA-N; NCI-H226; NCI-H522; OVCAR-4; SK-MEL-5; SN12C; SNB-75; SR; TK-10; HCC 2998.
What all share (experiment): growth of human tumour cells (NCI), 48 h

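Growth conditions: 96-well plates. Treatment: test compound, 48 hours, 5 concentrations. Analysis: linear interpolation between bracketing concentrations; unreached endpoints set to highest concentration. Here, GI50 denotes the concentration required for 50% inhibition of growth.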 Calls of active or inactive are those of the source. Rule as the data show it: active = GI50 up to about 1.1 µM and inactive = higher. Bounds are passed on as bounds.

As to `O=C(O)CSCC(=O)c1ccccc1`, the GI50 in the assay on 786-0, in the assay on A549, in the assay on CAKI-1, with HCT-116, in the assay on HOP-92 and in the assay with IGROV-1 was > 100 µM (inactive) in each case. The GI50 in the assay with KM12, with LOX IMVI, in the assay with MCF7, in the assay with MDA-N, in the assay on NCI-H226 and with NCI-H522 was > 100 µM (inactive) throughout. The GI50 in the assay with OVCAR-4, in the assay on SK-MEL-5, in the assay with SN12C, in the assay on SNB-75, with SR and in the assay on TK-10 was > 100 µM (inactive) throughout.
With `O=c1[nH]c(=O)n(C2CC(O)C(COP(=O)(OCC(Cl)(Cl)Cl)OCC(Cl)(Cl)Cl)O2)cc1F` (stereo not given), the GI50 in the assay with 786-0 was 0.245 µM (active); in the assay on A549 it was 0.212 µM (active); in the assay on CAKI-1 it was 0.3 µM (active); with HCC 2998, < 0.01 µM (active); in the assay on HCT-116, 2.21 µM (inactive); in the assay on HOP-92 it was 6.9 µM (inactive). Further, the GI50 in the assay on IGROV-1 was > 65.6 µM (inactive); in the assay on KM12, > 100 µM (inactive); in the assay with LOX IMVI, > 35.1 µM (inactive); with MCF7, 0.0619 µM (active); in the assay with MDA-N, > 26 µM (inactive); in the assay on NCI-H226, 95.1 µM (inactive). Besides, the GI50 in the assay on OVCAR-4 is > 76 µM (inactive); with SK-MEL-5, 1.97 µM (inactive); with SN12C it was 26.1 µM (inactive); in the assay with SNB-75, 6.1 µM (inactive); in the assay with SR, 0.391 µM (active); in the assay with TK-10, > 100 µM (inactive).
Turning to `C=C[C@]1(O[Si](C)(C)C)C[C@@]2(C(=O)OCC)C(O)C(=O)N3CCc4cc(OC)c(OC)cc4[C@]312` (stereo not given in full), the GI50 in the assay with 786-0 was > 100 µM (inactive); in the assay on A549 it was > 100 µM (inactive); in the assay with CAKI-1 it was > 100 µM (inactive); in the assay on HCT-116 it was > 100 µM (inactive); in the assay with HOP-92 it was 24.9 µM (inactive); in the assay with IGROV-1, > 100 µM (inactive). For the same compound, the GI50 in the assay on KM12 was > 100 µM (inactive); with LOX IMVI it was > 100 µM (inactive); in the assay with MCF7, 90.8 µM (inactive); with MDA-N, > 100 µM (inactive); with NCI-H226, > 100 µM (inactive); in the assay on OVCAR-4 it was > 100 µM (inactive). For the same compound, the GI50 with SK-MEL-5 was 44.7 µM (inactive); in the assay on SN12C it was > 100 µM (inactive); in the assay with SNB-75, > 100 µM (inactive); with SR it was > 100 µM (inactive); in the assay on TK-10, > 100 µM (inactive).
In the case of `COC(=O)c1nc(-c2nc(CCNC(=O)OC(C)(C)C)sc2Cl)sc1Cl`, the GI50 was > 100 µM (inactive) with 786-0; > 100 µM (inactive) in the assay with A549; > 100 µM (inactive) in the assay with HCC 2998; 60.7 µM (inactive) in the assay with HCT-116; 6.62 µM (inactive) in the assay with HOP-92; > 100 µM (inactive) with IGROV-1. In addition, the GI50 in the assay on KM12 is 55.3 µM (inactive); in the assay on MCF7 it was 52 µM (inactive); in the assay on MDA-N, 49.9 µM (inactive); with NCI-H226, 33.3 µM (inactive); in the assay on SK-MEL-5 it was 31.8 µM (inactive); in the assay with SN12C, > 10 µM (inactive). Also, the GI50 in the assay on SNB-75 was 23.1 µM (inactive); with SR, 35.2 µM (inactive); with TK-10, > 100 µM (inactive).
With `COC(=O)c1sc2c(c1C(=O)OC)/C(=N/C(C)(C)C)S/C2=N\C(C)(C)C`, the GI50 is 15 µM (inactive) in the assay on 786-0; 17.4 µM (inactive) in the assay with A549; 17.2 µM (inactive) with CAKI-1; 14.8 µM (inactive) with HCC 2998; 15.6 µM (inactive) in the assay on HCT-116; 18.7 µM (inactive) in the assay with HOP-92. In addition, the GI50 with IGROV-1 is 19.6 µM (inactive); with KM12 it was 16.3 µM (inactive); in the assay with LOX IMVI it was 19.5 µM (inactive); in the assay on MCF7 it was 17.7 µM (inactive); with MDA-N it was 17.9 µM (inactive); in the assay with NCI-H226 it was 16.3 µM (inactive). Also, the GI50 in the assay on NCI-H522 is 18.5 µM (inactive); in the assay on OVCAR-4, 17.7 µM (inactive); in the assay on SK-MEL-5, 14.8 µM (inactive); in the assay on SN12C, 16.6 µM (inactive); in the assay with SR, 13.4 µM (inactive); in the assay on TK-10 it was 17.2 µM (inactive).
With `C[C@@H]1CC[C@@H]2[C@@H](C1)O[C@@H]([C@@H](C)OCc1ccccc1)SC2(C)C`, the GI50 in the assay with 786-0 was 19.2 µM (inactive); in the assay on A549, 29.9 µM (inactive); in the assay with CAKI-1, 14.9 µM (inactive); in the assay with HCC 2998 it was 17.9 µM (inactive); with HCT-116, 18.3 µM (inactive); with IGROV-1, 23.1 µM (inactive). Moreover, the GI50 in the assay on KM12 is 18.7 µM (inactive); with LOX IMVI it was 21.2 µM (inactive); with MCF7, 18.7 µM (inactive); with MDA-N, 18.4 µM (inactive); in the assay on NCI-H226, 19.4 µM (inactive); with NCI-H522 it was 14.8 µM (inactive). Moreover, the GI50 in the assay with OVCAR-4 is 20.1 µM (inactive); with SK-MEL-5, 16.3 µM (inactive); in the assay with SN12C, 17.2 µM (inactive); in the assay with SNB-75 it was 16.2 µM (inactive); with SR it was 17.5 µM (inactive); with TK-10, 21.7 µM (inactive).
For the compound `O=c1n(-c2ccccc2)c(=O)n2n1C1CCC2CC1`, the GI50 in the assay on 786-0, with A549, in the assay on CAKI-1, in the assay on HCT-116, with HOP-92 and in the assay on IGROV-1 was > 100 µM (inactive) in each case. Moreover, the GI50 in the assay on KM12, in the assay with LOX IMVI, in the assay with MCF7, in the assay on MDA-N, with NCI-H226 and in the assay on SK-MEL-5 was > 100 µM (inactive) throughout. Besides, the GI50 in the assay on SN12C, with SNB-75, in the assay on SR and in the assay with TK-10 was > 100 µM (inactive) throughout.
Regarding `COc1ccc(/C=C(\NC(=O)c2ccccc2)C(=O)NN(C)c2ccnc3cc(Cl)ccc23)cc1OC`, the GI50 is 27.6 µM (inactive) in the assay on 786-0; 33 µM (inactive) in the assay with A549; 28.8 µM (inactive) in the assay with CAKI-1; 34.6 µM (inactive) in the assay with HCT-116; 21.4 µM (inactive) in the assay with HOP-92; 17.2 µM (inactive) in the assay with IGROV-1. The GI50 is 17.6 µM (inactive) in the assay with KM12; 18.7 µM (inactive) with LOX IMVI; 19.8 µM (inactive) with MCF7; 24.5 µM (inactive) in the assay with MDA-N; 19.1 µM (inactive) in the assay on NCI-H226; 21.8 µM (inactive) in the assay on NCI-H522. Also, the GI50 in the assay on OVCAR-4 is 30.7 µM (inactive); in the assay on SK-MEL-5, 23.6 µM (inactive); in the assay with SN12C, 25.9 µM (inactive); with SNB-75 it was 32.2 µM (inactive); with SR, 16.2 µM (inactive); in the assay with TK-10 it was 36.7 µM (inactive).
Regarding `NC(=O)NCCSC1CCCCC1O` (stereo not given), the GI50 in the assay with 786-0, in the assay with A549, in the assay on CAKI-1, with HCT-116, in the assay with HOP-92 and in the assay on IGROV-1 was > 100 µM (inactive) in each case. The GI50 in the assay on KM12, with LOX IMVI, in the assay with MCF7, in the assay on MDA-N, in the assay with NCI-H226 and with NCI-H522 was > 100 µM (inactive) in each case. In addition, the GI50 with OVCAR-4, with SK-MEL-5, in the assay on SN12C, with SNB-75, in the assay on SR and with TK-10 was > 100 µM (inactive) throughout.
Turning to `CCC(c1nc2ccccc2c(=O)n1NC(=O)C(C)(C)C)C1(O)CCCCC1` (stereo not given), the GI50 with 786-0, in the assay with A549, in the assay on CAKI-1, with HCT-116, with HOP-92 and in the assay with IGROV-1 was > 100 µM (inactive) throughout. Further, the GI50 with KM12 is > 100 µM (inactive); in the assay on MCF7, > 100 µM (inactive); in the assay with MDA-N, > 100 µM (inactive); in the assay with NCI-H226 it was > 100 µM (inactive); in the assay with NCI-H522, 67.8 µM (inactive); in the assay with OVCAR-4 it was > 100 µM (inactive). Besides, the GI50 with SK-MEL-5, in the assay on SN12C, in the assay on SNB-75 and in the assay on SR was > 100 µM (inactive) throughout.
Take `Cc1cc(NS(=O)(=O)c2ccc(NC(NC(=O)C(C(F)(F)F)C(F)(F)F)(C(F)(F)F)C(F)(F)F)cc2)no1`: the GI50 in the assay with 786-0, in the assay with A549, in the assay with CAKI-1, in the assay on HCC 2998, with HCT-116 and in the assay on HOP-92 was > 100 µM (inactive) throughout. For the same compound, the GI50 in the assay on IGROV-1, with KM12, in the assay on LOX IMVI, in the assay on MCF7, with MDA-N and in the assay on NCI-H226 was > 100 µM (inactive) each time. In addition, the GI50 in the assay on OVCAR-4, in the assay with SK-MEL-5, in the assay with SN12C, in the assay on SNB-75, in the assay on SR and in the assay with TK-10 was > 100 µM (inactive) each time.
